System: B16-F10 (murine melanoma)
Assay: [3H] thymidine uptake cell proliferation assay, B16F10
Format: cell-based
Conditions: Mus musculus, read-out: Cell Proliferation Effects (IC50 (nM))

O=C1c2ccccc2-c2nc3nnnn3nc21 [KP-23172]
IC50: 400 nM

— patent US7196083B2, “Heteropolycyclic inhibitors of protein kinases” (priority 2000, dated 2007)
